The values that follow come from patent US9902728B2, “Pyrrolo and pyrazolopyrimidines as ubiquitin-specific protease 7 inhibitors” (Forma Therapeutics, Inc., priority 2014, dated 2018).

The target in one test is T1, USP7 (Homo sapiens, UniProt Q93009).
T1 construct: USP7, construct USP7 (208-1102) 6*His, Viva Biotech; 6xHis (C); purchased Viva Biotech
T1 sequence (Q93009 208-1102): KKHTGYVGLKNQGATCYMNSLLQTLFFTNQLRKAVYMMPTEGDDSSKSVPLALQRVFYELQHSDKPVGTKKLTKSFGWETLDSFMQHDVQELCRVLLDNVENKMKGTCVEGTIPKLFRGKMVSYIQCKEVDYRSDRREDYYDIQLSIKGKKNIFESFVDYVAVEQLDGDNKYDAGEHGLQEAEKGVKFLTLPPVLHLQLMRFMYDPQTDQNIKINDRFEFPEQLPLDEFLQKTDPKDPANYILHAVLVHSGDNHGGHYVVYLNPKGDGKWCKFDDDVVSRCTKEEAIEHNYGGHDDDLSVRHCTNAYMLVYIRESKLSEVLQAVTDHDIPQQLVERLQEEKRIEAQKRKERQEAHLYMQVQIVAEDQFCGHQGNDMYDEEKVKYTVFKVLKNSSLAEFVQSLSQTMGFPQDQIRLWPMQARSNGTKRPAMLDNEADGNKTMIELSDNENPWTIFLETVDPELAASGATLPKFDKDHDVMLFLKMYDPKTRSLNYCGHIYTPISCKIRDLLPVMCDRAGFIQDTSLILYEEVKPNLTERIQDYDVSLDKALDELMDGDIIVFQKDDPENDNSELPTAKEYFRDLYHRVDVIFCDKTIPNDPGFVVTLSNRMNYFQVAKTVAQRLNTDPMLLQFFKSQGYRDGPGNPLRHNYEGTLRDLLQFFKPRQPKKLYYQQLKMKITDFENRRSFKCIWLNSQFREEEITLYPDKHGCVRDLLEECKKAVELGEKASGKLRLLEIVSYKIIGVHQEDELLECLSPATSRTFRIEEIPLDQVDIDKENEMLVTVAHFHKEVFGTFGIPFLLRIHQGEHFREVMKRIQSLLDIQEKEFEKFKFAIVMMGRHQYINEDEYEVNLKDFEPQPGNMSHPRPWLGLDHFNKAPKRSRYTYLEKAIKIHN
Description: USP7 Assay A (Ubitquin-Rhodamine 110 Assay). The test is classed as biochemical. Particulars: USP7 activity in USP7 assay A and B (table does not say which assay per compound); read-out: USP7_IC50. A digest of the protocol: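 Ub-Rh110 cleavage in 20 mM Tris-HCl pH 8.0 with 1 mM GSH, 0.03% BGG, 0.01% Triton X-100; compound preincubated with enzyme 30 min before substrate.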
`O=C(c1ccnn1Cc1ccccc1)N1CCC(O)(Cn2cnc3c(cnn3-c3ccc(F)cc3)c2=O)CC1` [Compound I-541]: the IC50 was in the range of 0.2 to 1 µM.
For the compound `O=C(C[C@@H](C(F)F)n1ccc(F)n1)N1CCC(O)(Cn2cnc3c(cnn3-c3ccc(F)cc3)c2=O)CC1` [Compound I-542], the IC50 is under 0.2 µM.
As for `O=C(C[C@H](C(F)F)n1ccc(F)n1)N1CCC(O)(Cn2cnc3c(cnn3-c3ccc(F)cc3)c2=O)CC1` [Compound I-543], the IC50 fell in the range of 0.2 to 1 µM.
Same read-out and setting: the result for `O=C(C1CCC(Oc2ccccn2)CC1)N1CCC(O)(Cn2cnc3c(cnn3-c3ccc(F)cc3)c2=O)CC1` (stereo not drawn) [Compound I-544] reads 1 to 10 µM; that for `O=C(C1CCC(Oc2ccccn2)CC1)N1CCC(O)(Cn2cnc3c(cnn3-c3ccc(F)cc3)c2=O)CC1` (stereo not drawn) [Compound I-545], 0.2 to 1 µM.
As for `O=C(C1CCC(Oc2ccccn2)CC1)N1CCC(O)(Cn2cnc3c(cnn3-c3ccc(F)cc3)c2=O)CC1` (stereo not drawn) [Compound I-546], the IC50 was 0.2 to 1 µM.
On to `O=C(c1ccc(Oc2ccccn2)cn1)N1CCC(O)(Cn2cnc3c(cnn3-c3ccc(F)cc3)c2=O)CC1` [Compound I-547], for which the IC50 is 1 to 10 µM.
`O=C(C1CCC(n2cccn2)CC1)N1CCC(O)(Cn2cnc3c(cnn3-c3ccc(F)cc3)c2=O)CC1` (stereo not drawn) [Compound I-548]: the IC50 fell in the range of 1 to 10 µM.
Same read-out and setting: the result for `O=C(C1CCC(n2cccn2)CC1)N1CCC(O)(Cn2cnc3c(cnn3-c3ccc(F)cc3)c2=O)CC1` (stereo not drawn) [Compound I-549] reads 1 to 10 µM.
The same measure, in the same setting: the figure for `O=C(c1ccc(-c2cnn3c2OCC3)cc1)N1CCC(O)(Cn2cnc3c(cnn3-c3ccc(F)cc3)c2=O)CC1` [Compound I-550] is 0.2 to 1 µM.
Still for that read-out and setting: the result for `O=C(c1ccc(-c2cnn3c2OCCC3)cc1)N1CCC(O)(Cn2cnc3c(cnn3-c3ccc(F)cc3)c2=O)CC1` [Compound I-551] reads 0.2 to 1 µM.
As for `O=C(c1ccc(-c2cnn3c2NCCC3)cc1)N1CCC(O)(Cn2cnc3c(cnn3-c3ccc(F)cc3)c2=O)CC1` [Compound I-552], the IC50 fell in the range of 0.2 to 1 µM.
On the same count and under the same terms, the result for `Nc1cc(Cl)ccc1C(=O)N1CCC(O)(Cn2cnc3c(cnn3-c3ccc(F)cc3)c2=O)CC1` [Compound I-554] reads 1 to 10 µM; that for `O=C(c1cnc(N2CCOCC2)o1)N1CCC(O)(Cn2cnc3c(cnn3-c3ccc(F)cc3)c2=O)CC1` [Compound I-555], 0.2 to 1 µM; that for `O=C(c1nnc(C2CC2)o1)N1CCC(O)(Cn2cnc3c(cnn3-c3ccc(F)cc3)c2=O)CC1` [Compound I-556], 1 to 10 µM.
`O=C(c1ncoc1Cc1ccccc1)N1CCC(O)(Cn2cnc3c(cnn3-c3ccc(F)cc3)c2=O)CC1` [Compound I-557]: the IC50 was in the range of 0.2 to 1 µM.
Take `O=C(c1cccn1Cc1ccc(F)cc1)N1CCC(O)(Cn2cnc3c(cnn3-c3ccc(F)cc3)c2=O)CC1` [Compound I-558]: the IC50 fell in the range of 0.2 to 1 µM.
Same read-out and setting: the result for `O=C(c1cccn1Cc1c(F)cccc1F)N1CCC(O)(Cn2cnc3c(cnn3-c3ccc(F)cc3)c2=O)CC1` [Compound I-559] reads 1 to 10 µM; that for `O=C(c1cccn1Cc1cccc(F)c1)N1CCC(O)(Cn2cnc3c(cnn3-c3ccc(F)cc3)c2=O)CC1` [Compound I-560], 0.2 to 1 µM; that for `O=C(c1cccn1Cc1ccccc1F)N1CCC(O)(Cn2cnc3c(cnn3-c3ccc(F)cc3)c2=O)CC1` [Compound I-561], 0.2 to 1 µM.
Consider `Cn1cc(Oc2ccc(C(=O)N3CCC(O)(Cn4cnc5c(cnn5-c5ccc(F)cc5)c4=O)CC3)cc2)cn1` [Compound I-562], for which the IC50 lay in the range of 1 to 10 µM.
For the compound `Cc1cc(Oc2ccc(C(=O)N3CCC(O)(Cn4cnc5c(cnn5-c5ccc(F)cc5)c4=O)CC3)cc2)no1` [Compound I-563], the IC50 fell in the range of 1 to 10 µM.
On to `O=C(c1cn[nH]c1Cc1ccccc1)N1CCC(O)(Cn2cnc3c(cnn3-c3ccc(F)cc3)c2=O)CC1` [Compound I-603], for which the IC50 was under 0.2 µM.
On to `CN1CC2CC1CN2c1ccc(C(=O)N2CCC(O)(Cn3cnc4c(cnn4-c4ccc(F)cc4)c3=O)CC2)cc1` (stereo not drawn) [Compound I-604], for which the IC50 fell in the range of 1 to 10 µM.
Same read-out and setting: the figure for `O=C(N1CCC(Oc2ccccn2)CC1)N1CCC(O)(Cn2cnc3c(cnn3-c3ccc(F)cc3)c2=O)CC1` [Compound I-610] is 1 to 10 µM.
Regarding `O=C(c1ccc(-n2ncc3c2CNC3)cc1)N1CCC(O)(Cn2cnc3c(cnn3-c3ccc(F)cc3)c2=O)CC1` [Compound I-611], the IC50 lay within 1 to 10 µM.
`O=C(c1ccc(-n2cc(CO)cn2)cc1)N1CCC(O)(Cn2cnc3c(cnn3-c3ccc(F)cc3)c2=O)CC1` [Compound I-612]: the IC50 lay within 1 to 10 µM.
Same read-out and setting: the figure for `NCc1cnn(-c2ccc(C(=O)N3CCC(O)(Cn4cnc5c(cnn5-c5ccc(F)cc5)c4=O)CC3)cc2)c1` [Compound I-613] is 1 to 10 µM.
The same measure, in the same setting: the result for `O=C(c1cnc(C2CC2)o1)N1CCC(O)(Cn2cnc3c(cnn3-c3ccc(C4CC4)cc3)c2=O)CC1` [Compound I-629] reads under 0.2 µM; that for `O=C(c1cnc(N2CCOCC2)o1)N1CCC(O)(Cn2cnc3c(cnn3-c3ccc(-c4ccccc4)cc3)c2=O)CC1` [Compound I-643], 0.2 to 1 µM.
The same measure, in the same setting: the result for `O=C(C[C@H](C(F)F)n1cccn1)N1CCC(O)(Cn2cnc3c(cnn3-c3ccc(-c4ccccc4)cc3)c2=O)CC1` [Compound I-645] reads 0.2 to 1 µM; that for `O=C(C[C@@H](C(F)F)n1cccn1)N1CCC(O)(Cn2cnc3c(cnn3-c3ccc(-c4ccccc4)cc3)c2=O)CC1` [Compound I-646], 1 to 10 µM.

Still in this test, the particulars now being: USP7 assay A and B (table does not say which assay per compound); read-out: USP7_IC50.
On to `O=C(c1ccc(Oc2ncccn2)cc1)N1CCC(O)(Cn2cnc3c(cnn3-c3ccc(F)cc3)c2=O)CC1` [Compound I-539], for which the IC50 lay in the range of 1 to 10 µM.
Take `C=CC(=O)N1CC[C@@H]1C(=O)N1CCC(O)(Cn2cnc3c(cnn3-c3ccc(F)cc3)c2=O)CC1` [Compound I-574]: the IC50 fell in the range of 0.2 to 1 µM.
Still for that read-out and setting: the figure for `C=CC(=O)NC1CCC(C(=O)N2CCC(O)(Cn3cnc4c(cnn4-c4ccc(F)cc4)c3=O)CC2)CC1` (stereo not drawn) [Compound I-576] is 1 to 10 µM; for `C=CC(=O)N1CC[C@]1(C)C(=O)N1CCC(O)(Cn2cnc3c(cnn3-c3ccc(F)cc3)c2=O)CC1` [Compound I-580] it is 0.2 to 1 µM; for `C#CC(=O)N(C)C1CC(C(=O)N2CCC(O)(Cn3cnc4c(cnn4-c4ccc(F)cc4)c3=O)CC2)C1` (stereo not drawn) [Compound I-589] it is 1 to 10 µM.
Take `CC1(O)CCN(Cc2cccc(C(=O)N3CCC(O)(Cn4cnc5c(cnn5-c5ccc(F)cc5)c4=O)CC3)c2)C1` (stereo not drawn) [Compound I-601]: the IC50 was over 10 µM.
`CN1CCC(c2ccc(C(=O)N3CCC(O)(Cn4cnc5c(cnn5-c5ccc(F)cc5)c4=O)CC3)cc2)CC1` [Compound I-605]: the IC50 was over 10 µM.
On the same count and under the same terms, the figure for `CN1CCN(c2ccc(C(=O)N3CCC(O)(Cn4cnc5c(cnn5-c5ccc(F)cc5)c4=O)CC3)cc2)CC1` [Compound I-606] is 1 to 10 µM.
Same read-out and setting: the figure for `COc1ccc(C(=O)N2CCC(O)(C(C)n3cnc4c(cnn4-c4ccc(F)cc4)c3=O)CC2)cc1` (stereo not drawn) [Compound I-614] is over 10 µM; for `COc1ccc(-n2ncc3c(=O)n(CC4(O)CCN(C(=O)c5ccc(F)cc5)CC4)cnc32)cc1` [Compound I-620] it is 0.2 to 1 µM.
For the compound `COc1cccc(-n2ncc3c(=O)n(CC4(O)CCN(C(=O)c5ccc(F)cc5)CC4)cnc32)c1` [Compound I-621], the IC50 fell in the range of 1 to 10 µM.
On the same count and under the same terms, the result for `COc1ccc(-n2ncc3c(=O)n(C(C)C4(O)CCN(C(=O)c5ccc(F)cc5)CC4)cnc32)cc1` (stereo not drawn) [Compound I-624] reads 0.2 to 1 µM; that for `COc1ccc(C(=O)N2CCC(O)(C(C)n3cnc4c(cnn4-c4ccc(OC)cc4)c3=O)CC2)cc1` (stereo not drawn) [Compound I-625], 1 to 10 µM.
On the same count and under the same terms, the figure for `COc1cc(-n2ncc3c(=O)n(CC4(O)CCN(C(=O)c5ccc(F)cc5)CC4)cnc32)ccc1F` [Compound I-627] is 1 to 10 µM; for `O=C(c1ccc(F)cc1)N1CCC(O)(Cn2cnc3c(cnn3-c3ccc(F)c(O)c3)c2=O)CC1` [Compound I-632] it is 1 to 10 µM.
Same read-out and setting: the result for `COC1(C)CCN(c2cc(-n3ncc4c(=O)n(CC5(O)CCN(C(=O)C6CC6)CC5)cnc43)ccc2F)C1` (stereo not drawn) [Compound I-633] reads 1 to 10 µM.
With `CN1CCN(c2cc(-n3ncc4c(=O)n(CC5(O)CCN(C(=O)c6ccccc6)CC5)cnc43)ccc2F)CC1` [Compound I-634], the IC50 lay in the range of 1 to 10 µM.
The same measure, in the same setting: the figure for `Nc1cc(-n2ncc3c(=O)n(CC4(O)CCN(C(=O)c5ccc(F)cc5)CC4)cnc32)ccc1F` [Compound I-635] is 1 to 10 µM; for `CC1(O)CCN(c2cc(-n3ncc4c(=O)n(CC5(O)CCN(C(=O)C6CC6)CC5)cnc43)ccc2F)C1` (stereo not drawn) [Compound I-636] it is 0.2 to 1 µM.
On the same count and under the same terms, the figure for `C[C@]1(O)CCN(c2cc(-n3ncc4c(=O)n(CC5(O)CCN(C(=O)C6CC6)CC5)cnc43)ccc2F)C1` [Compound I-637] is 0.2 to 1 µM; for `C[C@@]1(O)CCN(c2cc(-n3ncc4c(=O)n(CC5(O)CCN(C(=O)C6CC6)CC5)cnc43)ccc2F)C1` [Compound I-638] it is 0.2 to 1 µM; for `O=C(c1ccc(F)cc1)N1CCC(O)(Cn2cnc3c(cnn3-c3ccc(F)c(N4CCOCC4)c3)c2=O)CC1` [Compound I-639] it is 1 to 10 µM.
Same read-out and setting: the result for `O=C(c1ccc(F)cc1)N1CCC(O)(Cn2cnc3c(cnn3-c3ccc(F)c(CO)c3)c2=O)CC1` [Compound I-640] reads 1 to 10 µM; that for `O=C(c1ccc(OC(F)F)cc1)N1CCC(O)(Cn2cnc3c(cnn3-c3ccc(F)c(CO)c3)c2=O)CC1` [Compound I-641], 1 to 10 µM; that for `CC(CC(=O)N1CCC(O)(Cn2cnc3c(cnn3-c3ccc(-c4ccccc4)cc3)c2=O)CC1)n1cccn1` (stereo not drawn) [Compound I-648], 1 to 10 µM.
In the case of `C[C@@H](CC(=O)N1CCC(O)(Cn2cnc3c(cnn3-c3ccc(-c4ccccc4)cc3)c2=O)CC1)n1cccn1` [Compound I-649], the IC50 fell in the range of 0.2 to 1 µM.
As to `C[C@H](CC(=O)N1CCC(O)(Cn2cnc3c(cnn3-c3ccc(-c4ccccc4)cc3)c2=O)CC1)n1cccn1` [Compound I-650], the IC50 is 1 to 10 µM.
Same read-out and setting: the figure for `CC(CC(=O)N1CCC(O)(Cn2cnc3c(cnn3-c3ccc(-c4ccc(F)cc4)cc3)c2=O)CC1)n1cccn1` (stereo not drawn) [Compound I-652] is 0.2 to 1 µM.
